Results taken from paper PMC11477482 (Molecules, 2024).
Entries after “also recorded” stand apart in the source; their conditions may differ.

Assays:
[1] = tested on: RAW264.7 cells (mitochondrial O2− production); experiment: Mitochondrial antioxidant activity (MitoSOX, rotenone-induced superoxide); format: cell-based, mouse; conditions: 500 μM; for mitochondrial antioxidant activity: rotenone 20 μM
Procedure: The human keratinocytes (HaCaT, CLS 300493, Eppelheim, Germany) cell line was cultured with Dulbecco’s Modified Eagle’s Medium (DMEM) (Sigma-Aldrich, St. Louis, MO, USA), supplemented with 10% (v/v) of heat-inactivated fetal bovine serum (FBS), 1% (v/v) antibiotic solution (from a 10,000 U/mL penicillin and 10,000 μg/mL streptomycin stock) (Gibco, Carlsbad, CA, USA), 3.7 g/L sodium bicarbonate, and 1 mM sodium pyruvate (Sigma-Aldrich, St. Louis, MO, USA). The cell culture of keratinocytes was detached with EDTA solution 1X (Sigma-Aldrich, St. Louis, MO, USA) when the cells reached 70–80% confluence in cell culture flasks. The mouse macrophage cell line (RAW 264.7, ATCC TIB-71, Manassas, VA, USA) was cultured in DMEM supplemented with 10% (v/v) non-inactivated FBS, 1% (v/v) antibiotic solution, 1.5 g/L sodium bicarbonate, and 1 mM sodium pyruvate. Macrophages were mechanically detached with a cell scraper and subcultured in (1:10) proportion of cellular suspension to a final volume of DMEM. The human monocytic cell line THP-1 (ATCC® TIB-202™, American Type Culture Collection, Manassas, VA, USA) was cultivated in RPMI 1640 supplemented with 10% inactivated FBS, 25 mM (D)-glucose, 10 mM HEPES, 1 mM sodium pyruvate, 100 U/mL penicillin, and 100 μg/mL streptomycin, and maintained at a cell density of 0.4 × 10^6 cells/mL. Cells were subcultured every 2 or 3 days and maintained in culture for 2–3 months, according to ATCC® instructions.
Mitochondrial superoxide (O2^−) generation was determined using the MitoSOX Red kit, according to the manufacturer’s instructions. Briefly, 5.0 × 10^5 cells/mL were plated in a 12-well plate and incubated for 24 h at 37 °C. The cells were then exposed to the AA, AAG and AAGS solution (500 µM), and after 1 h, rotenone (20 μM) was added, followed by incubation for an additional 5 h. The cells were then carefully detached, transferred to microtubes, and centrifuged at 500× g for 3 min. The cell pellet was washed with HBSS solution (2 × 1 mL), resuspended in PBS solution, and 300 µL was collected in two microtubes for unstained (150 µL) and stained (150 µL) conditions. The stained cells were incubated with 100 μL of freshly prepared MitoSOX solution 2.5 µM at 37 °C for 15 min in the dark. The stained cells were washed with HBSS solution (2 × 1 mL), and the cell pellet was resuspended in 100 μL of PBS and analyzed by flow cytometry using a BD Accuri™ C6 cytometer (San Jose, CA, USA).
CD86 and CD54 levels were analyzed by flow cytometry using the acquisition channels FL1 and FL4. Mitochondrial O2^− production was measured by flow cytometry using the acquisition channel FL2. The relative fluorescence intensity (RFI) of CD86 and CD54 (THP-1 maturation assay) and MitoSOX (mitochondrial antioxidant activity) in the control and chemical-treated cells, based on the geometric mean fluorescence intensity (MFI), was calculated according to the following equation: RFI=MFI of chemical treated cells−MFI of chemical treated unstained cells/MFI of control treated cells−MFI of control unstained cells ×100

[2] = DPPH radical scavenging assay; conditions: ethanol, 15 min in the dark, 517 nm; ± SD
Procedure: Stock solutions of each compound (100 µM) and DPPH solution (150 µM) were prepared in ethanol. Different concentrations of antioxidant solutions (0.1–50 µM) were prepared to test their antioxidant effect. In a 96-well plate, 100 µL of DPPH working solution was added to a 100 µL sample solution and incubated at room temperature for 15 min in the dark. The absorbance of each sample was measured at 517 nm, in a microplate reader. For the negative control, 100 μL ethanol was added instead of the antioxidant solution. Rutin was used as the positive control. Inhibition curves were constructed, and the half maximal effective concentration (EC50) values were calculated for all samples by linear regression for the three independent assays performed.

[3] = Stability in metal solutions, pH 5 (UV-vis absorbance); format: physicochemical
Procedure: Five independent metal solutions (100 µM) were prepared in a buffer at pH 5, in triplicate. To the compound solutions, a volume of metal solutions was added to a final proportion of 1:1. The stability in the presence of different metals was analyzed at specific time points. The solutions were stored at room temperature in the dark. Aliquots of 3.00 mL were transferred to quartz cuvettes at specific time points to measure their absorbance using UV–vis spectrophotometry. Solutions of each metal were used as blanks.

[4] = DSC thermal analysis and compatibility with excipients; format: physicochemical; conditions: for compatibility with Carbopol 980 (CP) / compatibility with EDTA / compatibility with hydroxyethylcellulose (HEC) / compatibility with miglyol 812 (MIG) / compatibility with stearyl alcohol (SA) / compatibility with tocopherol (TP): 1:1 (w/w) mixture; for Tonset / Tpeak / ΔH: compound alone, 10 °C/min, nitrogen
Procedure: A differential scanning calorimeter (DSC) 200F3 Maia (Netzsh-Gerätebau GmbH, Selb, Germany) was used for thermal analysis of the ingredients and mixtures. Typical excipients of topical formulations with different functions were selected for this study. The physical mixtures between compounds and the excipients were prepared in a ratio of 1:1 (w/w). Individual samples and the physical mixtures were weighed directly in the pierced DSC aluminum pan and scanned in the temperature range of 20–400 °C under nitrogen atmosphere with flow of 40 mL/min, with a heating rate of 10 °C/min. An empty aluminum pan was used as reference. The onset temperature and melting enthalpy (ΔH) were calculated using Proteus Analysis software (Version 6.1, NETZSCH-Gerätebau GmbH, Germany). The DSC cell was calibrated (sensitivity and temperature calibration) with Hg (m.p. −38.8 °C), In (m.p. 156.6 °C), Sn (m.p. 231.9 °C), Bi (m.p. 271.4 °C), Zn (m.p. 419.5 °C), and CsCl (m.p. 476.0 °C) as standards.

| SMILES | pro-oxidant profile [1] | EC50 [2] | loss of absorbance ([3]; pH 5, Cu(II), Fe(II), and Fe(III)) | compatibility with Carbopol 980 (CP) [4] | compatibility with EDTA [4] | Tonset [4] | Tpeak [4] | ΔH [4] | mitochondrial antioxidant activity [1] | loss of absorbance ([3]; pH 5, Fe(III) and Cu(II), at the end of 1 d) | compatibility with hydroxyethylcellulose (HEC) [4] | compatibility with miglyol 812 (MIG) [4] | compatibility with stearyl alcohol (SA) [4] | compatibility with tocopherol (TP) [4] | loss of absorbance ([3]; pH 5, Ca(II), Cu(II), and Fe(III), after one day) |
| --- | --- | --- | --- | --- | --- | --- | --- | --- | --- | --- | --- | --- | --- | --- | --- |
| O=C1O[C@H]([C@@H](O)CO)C(O)=C1O [AA, Ascorbic acid] | AA, AAG, and AAGS with no pro-oxidant profile % inhibition of rotenone-induced SO2^− production: AA > AAG > AAGS | 1.54 ± 0.21 µM | > 80% | Weak interferences | Weak interferences | 192.9 °C | 197.1 °C | -328.6 J/g | – | – | – | – | – | – | – |
| O=C1O[C@H]([C@@H](O)CO)C(O)=C1O[C@H]1O[C@H](CO)[C@@H](O)[C@H](O)[C@H]1O [AAG, 2-O-α-D-glucopyranosyl-L-ascorbic acid] | AA, AAG, and AAGS with no pro-oxidant profile % inhibition of rotenone-induced SO2^− production: AA > AAG > AAGS | 9.15 ± 0.13 µM | – | – | more compatible | 173.0 °C | 176.4 °C | -139.8 J/g | did not demonstrate an ability to exert antioxidant activity in mitochondria | < 30% | Weak interferences | more compatible | Weak interferences | more compatible | – |
| O=C1OC(C(COS(=O)(=O)O)OS(=O)(=O)O)C(OS(=O)(=O)O)=C1OC1OC(COS(=O)(=O)O)C(OS(=O)(=O)O)C(OS(=O)(=O)O)C1OS(=O)(=O)O [AAGS, 2-O-α-D-glucopyranosyl-L-ascorbic acid persulfate] | non-prooxidant; also recorded: AA, AAG, and AAGS with no pro-oxidant profile % inhibition of rotenone-induced SO2^− production: AA > AAG > AAGS | 5.28 ± 0.36 µM | – | Weak interferences | – | 195.0 °C | 200.5 °C | 223.1 J/g | did not demonstrate an ability to exert antioxidant activity in mitochondria | – | more compatible; also recorded: favorable compatibility | more compatible | Weak interferences | more compatible | > 50% |
